Data reported in patent US9580444B2, “Polycyclic pyrazolinone derivative and herbicide comprising same as effective component thereof” (priority 2013, dated 2017).

How the values were obtained:
Format in all cases: in vivo
[1] = test system: Amaranthus viridis (green amaranthus); test: Test Example-4: herbicidal effect by a foliage treatment after weeds are generated under upland field conditions; conditions: 500 g a.i/ha, foliage treatment after emergence, about 14 days after treatment, score 0-5
Procedure, shortened: (§1)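 Post-emergence foliar treatment: seedlings raised 14 days in watered upland soil are sprayed with the diluted formulation at a predetermined dose, using a spray volume of 4000 L/ha. Effects on weeds and on corn are rated 0–5 roughly two weeks afterwards.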

[2] = test system: Abutilon theophrasti (velvetleaf); test: as above; conditions: 500 g a.i/ha, foliage treatment after emergence, about 14 days after treatment, score 0-5
Procedure, shortened: as §1

[3] = test system: Chenopodium album (common lambsquarters); test: as above; conditions: 500 g a.i/ha, foliage treatment after emergence, about 14 days after treatment, score 0-5
Procedure, shortened: as §1

corn [4] = test: Test Example-4: phytotoxicity by a foliage treatment after weeds are generated under upland field conditions; conditions: 500 g a.i/ha, foliage treatment after emergence, about 14 days after treatment, score 0-5
Procedure, shortened: as §1

corn [5] = test: Test Example-2: phytotoxicity by a soil treatment before weeds are generated under upland field conditions; conditions: application amount 500 g a.i/ha, soil spray treatment before weeds are generated, about 21 days after the treatment, score 0 to 5
Procedure, shortened: (§2)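 Pre-emergence soil treatment: seeds sown in upland soil and covered with about 0.5 cm soil were sprayed the next day with diluted wettable powder or emulsifiable concentrate at a predetermined dosage. Weed control and corn injury were scored on a 0–5 scale about 21 days after treatment.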

corn [6] = test: Test Example-5: phytotoxicity by a foliage treatment after weeds are generated under upland field conditions; conditions: foliage treatment after emergence, about 14 days after treatment, score 0-5
From the text: (§3) Using the formulation prepared according to the methods described above, the herbicidal effect of the bicyclic pyrazolinone derivative of the invention according to the methods shown in Test Examples below was examined. The herbicidal effect with respect to the test weeds or the phytotoxicity with respect to the test crops was examined according to the following criteria, and evaluated in six stage scores of 0 to 5. A vat having an area of 81 cm^2 and a depth of 3.5 cm was filled with upland soil, then, seeds of Ipomoea purpurea (tall morning glory), Amaranthus viridis (green amaranthus), Abutilon theophrasti (velvetleaf), Chenopodium album (common lambsquarters), and corn were seeded thereto, and the seeds were covered with soil of about 0.5 cm. While watering was suitably performed on there, the seeds were grown for 14 days. A wettable powder or an emulsifiable concentrate of the compound of the present invention prepared according to Formulation Example was diluted, and a spray treatment was uniformly performed on the foliage portion of the plant so as to be a predetermined dosage in the amount of water of 4000 L per hectare. The herbicidal effect with respect to the test weeds and the phytotoxicity with respect to corn about 14 days after the treatment were evaluated according to the evaluation criteria in six stages of 0 to 5 described above.

[7] = test system: Cyperus difformis (smallflower umbrella plant); test: Test Example-1: herbicidal effect by a treatment before weeds are generated under submerged conditions; conditions: 500 g a.i/ha, pre-emergence treatment, about 15 days after treatment, score 0-5
Procedure, shortened: (§4)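 Scores (0–5, six stages) reflect visual weed control about 15 days after a same-day water application of the diluted formulated compound to freshly seeded, flooded paddy soil.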

[8] = test system: Echinochloa oryzicola (barnyard grass); test: as above; conditions: 500 g a.i/ha, pre-emergence treatment, about 15 days after treatment, score 0-5
Procedure, shortened: as §4

[9] = test system: Scirpus juncoides (bulrush); test: as above; conditions: 500 g a.i/ha, pre-emergence treatment, about 15 days after treatment, score 0-5
Procedure, shortened: as §4

[10] = test system: Monochoria vaginalis (monochoria); test: as above; conditions: 500 g a.i/ha, pre-emergence treatment, about 15 days after treatment, score 0-5
Procedure, shortened: as §4

[11] = test system: other annual broad leaf weeds (Lindernia procumbens, Rotala indica, Elatine triandra); test: as above; conditions: 500 g a.i/ha, pre-emergence treatment, about 15 days after treatment, score 0-5
Procedure, shortened: as §4

[12] = test system: Eleocharis acicularis (needle spikerush); test: as above; conditions: 500 g a.i/ha, pre-emergence treatment, about 15 days after treatment, score 0-5
Procedure, shortened: as §4

[13] = test system: Amaranthus viridis (green amaranthus); test: Test Example-3: herbicidal effect by a treatment before weeds are generated under upland field conditions; conditions: upland soil treatment before emergence, about 21 days after treatment, score 0-5
From the text: as §3, with “Next day, a” for “While watering was suitably performed on there, the seeds were grown for 14 days. A”, “covered oil” for “foliage portion of the plant”, “dosage.” for “dosage in the amount of water of 4000 L per hectare.”, “21” for “14”

[14] = test system: Abutilon theophrasti (velvetleaf); test: as above; conditions: upland soil treatment before emergence, about 21 days after treatment, score 0-5
From the text: as §3, with “Next day, a” for “While watering was suitably performed on there, the seeds were grown for 14 days. A”, “covered oil” for “foliage portion of the plant”, “dosage.” for “dosage in the amount of water of 4000 L per hectare.”, “21” for “14”

[15] = test system: Ipomoea purpurea (tall morning glory); test: as above; conditions: upland soil treatment before emergence, about 21 days after treatment, score 0-5
From the text: as §3, with “Next day, a” for “While watering was suitably performed on there, the seeds were grown for 14 days. A”, “covered oil” for “foliage portion of the plant”, “dosage.” for “dosage in the amount of water of 4000 L per hectare.”, “21” for “14”

[16] = test system: Chenopodium album (common lambsquarters); test: as above; conditions: upland soil treatment before emergence, about 21 days after treatment, score 0-5
From the text: as §3, with “Next day, a” for “While watering was suitably performed on there, the seeds were grown for 14 days. A”, “covered oil” for “foliage portion of the plant”, “dosage.” for “dosage in the amount of water of 4000 L per hectare.”, “21” for “14”

[17] = test system: Amaranthus viridis (green amaranthus); test: Test Example-2: herbicidal effect by a soil treatment before weeds are generated under upland field conditions; conditions: application amount 500 g a.i/ha, soil spray treatment before weeds are generated, about 21 days after the treatment, score 0 to 5
Procedure, shortened: as §2

[18] = test system: Chenopodium album (common lambsquarters); test: as above; conditions: application amount 500 g a.i/ha, soil spray treatment before weeds are generated, about 21 days after the treatment, score 0 to 5
Procedure, shortened: as §2

[19] = test system: Amaranthus viridis (green amaranthus); test: Test Example-5: herbicidal effect by a foliage treatment after weeds are generated under upland field conditions; conditions: foliage treatment after emergence, about 14 days after treatment, score 0-5
From the text: as §3

[20] = test system: Abutilon theophrasti (velvetleaf); test: as above; conditions: foliage treatment after emergence, about 14 days after treatment, score 0-5
From the text: as §3

[21] = test system: Ipomoea purpurea (tall morning glory); test: as above; conditions: foliage treatment after emergence, about 14 days after treatment, score 0-5
From the text: as §3

[22] = test system: Chenopodium album (common lambsquarters); test: as above; conditions: foliage treatment after emergence, about 14 days after treatment, score 0-5
From the text: as §3

corn [23] = test: Test Example-3: phytotoxicity by a treatment before weeds are generated under upland field conditions; conditions: upland soil treatment before emergence, about 21 days after treatment, score 0-5
From the text: as §3, with “Next day, a” for “While watering was suitably performed on there, the seeds were grown for 14 days. A”, “covered oil” for “foliage portion of the plant”, “dosage.” for “dosage in the amount of water of 4000 L per hectare.”, “21” for “14”

| Structure (SMILES) | Herbicidal effect Amaranthus viridis [1] | Herbicidal effect Abutilon theophrast [2] | Herbicidal effect Chenopodium album [3] | Phytotoxicity Corn (corn [4]) | Phytotoxicity Corn (corn [5]) | Phytotoxicity Corn (corn [6]; 12.5 g a.i/ha) | Phytotoxicity Corn (corn [6]; 25 g a.i/ha) | Herbicidal effect Cyperus difformis [7] | Herbicidal effect Echinochloa oryzicola [8] | Herbicidal effect Scirpus juncoides [9] | Herbicidal effect Monochoria vaginalis [10] | Herbicidal effect Broadleaf weed [11] | Herbicidal effect Eleocharis acicularis [12] | Herbicidal effect Amaranthus viridis ([13]; 50 g a.i/ha) | Herbicidal effect Amaranthus viridis ([13]; 100 g a.i/ha) | Herbicidal effect Abutilon theophrast ([14]; 50 g a.i/ha) | Herbicidal effect Abutilon theophrast ([14]; 100 g a.i/ha) | Herbicidal effect Ipomoea purpurea ([15]; 50 g a.i/ha) | Herbicidal effect Ipomoea purpurea ([15]; 100 g a.i/ha) | Herbicidal effect Chenopodium album ([16]; 50 g a.i/ha) | further results |
| --- | --- | --- | --- | --- | --- | --- | --- | --- | --- | --- | --- | --- | --- | --- | --- | --- | --- | --- | --- | --- | --- |
| C#CCOc1cc(-c2c(Cl)n3n(c2=O)CCCC3)c(F)cc1Cl [Example 1-238] | 5 (Herbicidal effect/phytotoxicity was 90% or greater) | 5 (Herbicidal effect/phytotoxicity was 90% or greater) | 5 (Herbicidal effect/phytotoxicity was 90% or greater) | 3 (Herbicidal effect/phytotoxicity was 50% to 70%) | 1 (Herbicidal effect/phytotoxicity was 10% to 30%) | 0 (Herbicidal effect/phytotoxicity was 0% to 10%) | 0 (Herbicidal effect/phytotoxicity was 0% to 10%) | 5 (Herbicidal effect/phytotoxicity was 90% or greater) | 5 (Herbicidal effect/phytotoxicity was 90% or greater) | 5 (Herbicidal effect/phytotoxicity was 90% or greater) | 5 (Herbicidal effect/phytotoxicity was 90% or greater) | 5 (Herbicidal effect/phytotoxicity was 90% or greater) | 5 (Herbicidal effect/phytotoxicity was 90% or greater) | 4 (Herbicidal effect/phytotoxicity was 70% to 90%) | 5 (Herbicidal effect/phytotoxicity was 90% or greater) | 5 (Herbicidal effect/phytotoxicity was 90% or greater) | 5 (Herbicidal effect/phytotoxicity was 90% or greater) | 5 (Herbicidal effect/phytotoxicity was 90% or greater) | 5 (Herbicidal effect/phytotoxicity was 90% or greater) | 5 (Herbicidal effect/phytotoxicity was 90% or greater) | Herbicidal effect Chenopodium album ([16]; 100 g a.i/ha): 5 (Herbicidal effect/phytotoxicity was 90% or greater); Herbicidal effect Amaranthus viridis [17]: 5 (Herbicidal effect/phytotoxicity was 90% or greater); Herbicidal effect Chenopodium album [18]: 5 (Herbicidal effect/phytotoxicity was 90% or greater); Herbicidal effect Amaranthus viridis ([19]; 12.5 g a.i/ha): 5 (Herbicidal effect/phytotoxicity was 90% or greater); Herbicidal effect Amaranthus viridis ([19]; 25 g a.i/ha): 5 (Herbicidal effect/phytotoxicity was 90% or greater); Herbicidal effect Abutilon theophrasti ([20]; 12.5 g a.i/ha): 5 (Herbicidal effect/phytotoxicity was 90% or greater); Herbicidal effect Abutilon theophrasti ([20]; 25 g a.i/ha): 5 (Herbicidal effect/phytotoxicity was 90% or greater); Herbicidal effect Ipomoea purpurea ([21]; 12.5 g a.i/ha): 5 (Herbicidal effect/phytotoxicity was 90% or greater); Herbicidal effect Ipomoea purpurea ([21]; 25 g a.i/ha): 5 (Herbicidal effect/phytotoxicity was 90% or greater); Herbicidal effect Chenopodium album ([22]; 12.5 g a.i/ha): 5 (Herbicidal effect/phytotoxicity was 90% or greater); Herbicidal effect Chenopodium album ([22]; 25 g a.i/ha): 5 (Herbicidal effect/phytotoxicity was 90% or greater); Phytotoxicity Corn (corn [23]; 50 g a.i/ha): 0 (Herbicidal effect/phytotoxicity was 0% to 10%); Phytotoxicity Corn (corn [23]; 100 g a.i/ha): 0 (Herbicidal effect/phytotoxicity was 0% to 10%) |
| C#CCOc1cc(-c2c(Cl)n3n(c2=O)CCOCC3)c(Cl)cc1Cl [Example 1-306] | 5 (Herbicidal effect/phytotoxicity was 90% or greater) | 5 (Herbicidal effect/phytotoxicity was 90% or greater) | 5 (Herbicidal effect/phytotoxicity was 90% or greater) | 1 (Herbicidal effect/phytotoxicity was 10% to 30%) | 1 (Herbicidal effect/phytotoxicity was 10% to 30%) | 0 (Herbicidal effect/phytotoxicity was 0% to 10%) | 0 (Herbicidal effect/phytotoxicity was 0% to 10%) | 5 (Herbicidal effect/phytotoxicity was 90% or greater) | 5 (Herbicidal effect/phytotoxicity was 90% or greater) | 5 (Herbicidal effect/phytotoxicity was 90% or greater) | 5 (Herbicidal effect/phytotoxicity was 90% or greater) | 5 (Herbicidal effect/phytotoxicity was 90% or greater) | 5 (Herbicidal effect/phytotoxicity was 90% or greater) | 5 (Herbicidal effect/phytotoxicity was 90% or greater) | 5 (Herbicidal effect/phytotoxicity was 90% or greater) | 3 (Herbicidal effect/phytotoxicity was 50% to 70%) | 4 (Herbicidal effect/phytotoxicity was 70% to 90%) | 4 (Herbicidal effect/phytotoxicity was 70% to 90%) | 5 (Herbicidal effect/phytotoxicity was 90% or greater) | 5 (Herbicidal effect/phytotoxicity was 90% or greater) | Herbicidal effect Chenopodium album ([16]; 100 g a.i/ha): 5 (Herbicidal effect/phytotoxicity was 90% or greater); Herbicidal effect Amaranthus viridis [17]: 5 (Herbicidal effect/phytotoxicity was 90% or greater); Herbicidal effect Chenopodium album [18]: 5 (Herbicidal effect/phytotoxicity was 90% or greater); Herbicidal effect Amaranthus viridis ([19]; 12.5 g a.i/ha): 5 (Herbicidal effect/phytotoxicity was 90% or greater); Herbicidal effect Amaranthus viridis ([19]; 25 g a.i/ha): 5 (Herbicidal effect/phytotoxicity was 90% or greater); Herbicidal effect Abutilon theophrasti ([20]; 12.5 g a.i/ha): 5 (Herbicidal effect/phytotoxicity was 90% or greater); Herbicidal effect Abutilon theophrasti ([20]; 25 g a.i/ha): 5 (Herbicidal effect/phytotoxicity was 90% or greater); Herbicidal effect Ipomoea purpurea ([21]; 12.5 g a.i/ha): 5 (Herbicidal effect/phytotoxicity was 90% or greater); Herbicidal effect Ipomoea purpurea ([21]; 25 g a.i/ha): 5 (Herbicidal effect/phytotoxicity was 90% or greater); Herbicidal effect Chenopodium album ([22]; 12.5 g a.i/ha): 5 (Herbicidal effect/phytotoxicity was 90% or greater); Herbicidal effect Chenopodium album ([22]; 25 g a.i/ha): 5 (Herbicidal effect/phytotoxicity was 90% or greater); Phytotoxicity Corn (corn [23]; 50 g a.i/ha): 0 (Herbicidal effect/phytotoxicity was 0% to 10%); Phytotoxicity Corn (corn [23]; 100 g a.i/ha): 1 (Herbicidal effect/phytotoxicity was 10% to 30%) |
